“And” between values parts separate entries of the source, which are not always exact repeats. Identical values can stand only once.
Experiments:
[1] = tested on: serum anti-estrogen IgE antibodies; experiment: Competition ELISA: absorption of serum IgE anti-estrogen with specific and non-specific antigens; assay type: binding, human; settings: for Absorption of serum IgE antibodies, in words: antigen added to the liquid phase; for Inhibition of IgE anti-estrogen binding, range over samples: antigen in liquid phase, summary of Table 3; for Percent inhibition after absorption (IgE) / Serum anti-estrogen IgE level after absorption: antigen 250 μg/mL; for Serum anti-estrogen IgE level after absorption: optical density at 405 nm
Description: (§1) Enzyme-linked immunosorbent assay (ELISA) was used for testing antibodies against estrogen and progesterone in the sera of patients with premenstrual asthma and with control subjects. […] Plates were incubated overnight at 4° C. and then washed three times with […] of Tris-buffered saline (TBS) containing 0.05% Tween 20, pH 7.4. […] Plates were incubated for 2 h (for IgG and IgM) and overnight (for IgE), and then washed four times with PBS-Tween 20. Alkaline-phosphatase-conjugated goat anti-human IgG, IgM or IgE F(ab′)2 fragment at optimal dilution of 1:700 (IgG); 1:500 (IgM) and 1:250 (IgE) was added to corresponding wells. The plates were then incubated for an additional 2 h at room temperature. After washing five times with TBS-Tween buffer, the enzyme reaction was started by adding 100 μl of para-nitrophenylphosphate in 0.1 mL of diethanolamine buffer (1 mg/ml) containing 1 mM MgCl2 and sodium azide, pH 9.8. The reaction was stopped 45 minutes later with 50 μl of 1 N NaOH. The optical density was read at 405 nm (OD405) with a microtiter reader.
(§2) 100 μl of serum diluent buffer was added to all wells. […] After a 60-minute incubation, 100 μl serum anti-estrogen or anti-progesterone was added to all wells. […] Results were calculated as a percentage of inhibition in antigen-antibody reaction.
(§3) To examine whether antibodies to estrogen or progesterone are specific or cross-reactive, competition ELISA was performed by adding specific and non-specific antigens in liquid phase and examined prevention of serum antibody binding to the antigen in solid phase. […] This cross-reaction between estrogen and progesterone antibodies may be due to structural similarities between these two hormones.

[2] = tested on: serum anti-estrogen IgG antibodies; experiment: Competition ELISA: absorption of serum IgG anti-estrogen with specific and non-specific antigens; assay type: binding, human; settings: for Absorption of serum IgG antibodies, in words: antigen added to the liquid phase; for Inhibition of anti-estrogen binding to estrogen (IgG), range over samples: antigen in liquid phase, Table 2; for Percent inhibition after absorption (IgG) / Serum anti-estrogen IgG level after absorption: antigen 250 μg/mL; for Serum anti-estrogen IgG level after absorption: optical density at 405 nm
Description: as §1, §2, §3

[3] = tested on: macular degeneration; experiment: Clinical case: sublingual progesterone in a patient with macular degeneration; assay type: in vivo, human
Description: An adult human presented with macular degeneration. They had visual acuity of 20/200 in each eye. After the use of sublingual progesterone, one application, their vision improved to 20/100 and 20/40. […] They were evaluated for hormone allergy therapy by assessing their anti-hormone antibodies and found to have elevated levels of IgE, IgG, and IgM antibodies to progesterone.
The subject then received progesterone 1:10 sublingual drops which they continue to use.

[4] = serum sample 1, before absorption 2.15
[5] = serum sample 2, before absorption 1.66
[6] = serum sample 3, before absorption 1.34
[7] = serum sample 1, before absorption 1.83
[8] = serum sample 2, before absorption 1.25
[9] = serum sample 3, before absorption 0.76

With “Pn: Progesterone bound to bovine serum albumin, purchased from Sigma; antigen in competition ELISA” the “Absorption of serum IgE antibodies, in words” value [1] was “significantly absorbed”, the “Inhibition of IgE anti-estrogen binding, range over samples” value [1] was 37-43% and the “Percent inhibition after absorption (IgE)” value (from here on “Percent inhibition … (IgE)”) ([1]; serum sample 1) was “(37%)”. For the same molecule, the “Serum anti-estrogen IgE level after absorption” value (“Serum anti-estrogen IgE level” for short) [1, 4] was 1.35, the “Serum anti-estrogen IgE level” value [1, 5] was 0.98 and the “Percent inhibition … (IgE)” value ([1]; serum sample 3) was “(43%)”. The “Serum anti-estrogen IgE level” value [1, 6] was 0.76, the “Absorption of serum IgG antibodies, in words” value [2] was “significantly absorbed” and the “Inhibition of anti-estrogen binding to estrogen (IgG), range over samples” value [2] was 41-52%. The “Percent inhibition after absorption (IgG)” value (from here on “Percent inhibition … (IgG)”) ([2]; serum sample 1) was “(52%)”, the “Serum anti-estrogen IgG level after absorption” value (“Serum anti-estrogen IgG level” for short) [2, 7] was 0.87 and the “Percent inhibition … (IgG)” value ([2]; serum sample 2) was “(45%)”. The “Serum anti-estrogen IgG level” value [2, 8] was 0.69, the “Percent inhibition … (IgG)” value ([2]; serum sample 3) was “(41%)” and the “Serum anti-estrogen IgG level” value [2, 9] was 0.45.

bovine serum albumin [BSA] was tested, and the “Absorption of serum IgE antibodies, in words” value [1] was “did not absorb”, the “Serum anti-estrogen IgE level” value [1, 4] was 2.24 and the “Serum anti-estrogen IgE level” value [1, 5] was 1.53. For the same molecule, the “Serum anti-estrogen IgE level” value [1, 6] was 1.26, the “Absorption of serum IgG antibodies, in words” value [2] was “did not absorb” and the “Serum anti-estrogen IgG level” value [2, 7] was 1.79. The “Serum anti-estrogen IgG level” value [2, 8] was 1.13 and the “Serum anti-estrogen IgG level” value [2, 9] was 0.81.

In the case of “En: Estrogen (estradiol) bound to bovine serum albumin, purchased from Sigma; specific antigen in competition ELISA”, the “Absorption of serum IgE antibodies, in words” value [1] is reported as “significantly absorbed”, the “Inhibition of IgE anti-estrogen binding, range over samples” value [1] is reported as 54-62% and the “Percent inhibition … (IgE)” value ([1]; serum sample 1) is reported as “(55%)”. The “Serum anti-estrogen IgE level” value [1, 4] was 0.96, the “Percent inhibition … (IgE)” value ([1]; serum sample 2) was “(54%)” and the “Serum anti-estrogen IgE level” value [1, 5] was 0.77. The “Percent inhibition … (IgE)” value ([1]; serum sample 3) was “(62%)”, the “Serum anti-estrogen IgE level” value [1, 6] was 0.51 and the “Absorption of serum IgG antibodies, in words” value [2] was “significantly absorbed”. For the same molecule, the “Inhibition of anti-estrogen binding to estrogen (IgG), range over samples” value [2] was 52-67%, the “Percent inhibition … (IgG)” value ([2]; serum sample 1) was “(67%)” and the “Serum anti-estrogen IgG level” value [2, 7] was 0.61. The “Percent inhibition … (IgG)” value ([2]; serum sample 2) was “(59%)”, the “Serum anti-estrogen IgG level” value [2, 8] was 0.52 and the “Percent inhibition … (IgG)” value ([2]; serum sample 3) was “(52%)”. The “Serum anti-estrogen IgG level” value [2, 9] was 0.37.

For `CC(=O)[C@H]1CC[C@H]2[C@@H]3CCC4=CC(=O)CC[C@]4(C)[C@H]3CC[C@]12C` [progesterone], the “Visual acuity after treatment” value ([3]; adult human female, sublingual, one application, baseline 20/200 in each eye) was 20/100 and 20/40 and the “Ophthalmologist's assessment” value ([3]; return visit two weeks later, as reported by the patient) was “remarkably improved”.

B1: myelin basic protein (protein, UniProt P02686 1-304, looked up)
Myelin basic protein: MGNHAGKRELNAEKASTNSETNRGESEKKRNLGELSRTTSEDNEVFGEADANQNNGTSSQDTAVTDSKRTADPKNAWQDAHPADPGSRPHLIRLFSRDAPGREDNTFKDRPSESDELQTIQEDSAATSESLDVMASQKRPSQRHGSKYLATASTMDHARHGFLPRHRDTGILDSIGRFFGGDRGAPKRGSGKDSHHPARTAHYGSLPQKSHGRTQDENPVVHFFKNIVTPRTPPPSQGKGRGLSLSRFSWGAEGQRPGFGYGGRASDYKSAHKGFKGVDAQGTLSKIFKLGGRDSRSGSPMARR
For B1, the “Absorption of serum IgE antibodies, in words” value [1] was “did not absorb”, the “Serum anti-estrogen IgE level” value [1, 4] was 2.05 and the “Serum anti-estrogen IgE level” value [1, 5] was 1.73. The “Serum anti-estrogen IgE level” value [1, 6] was 1.11, the “Absorption of serum IgG antibodies, in words” value [2] was “did not absorb” and the “Serum anti-estrogen IgG level” value [2, 7] was 1.67. For the same molecule, the “Serum anti-estrogen IgG level” value [2, 8] was 1.13 and the “Serum anti-estrogen IgG level” value [2, 9] was 0.68.
